{"source": "patent US20240299457A1", "about": "“METHODS FOR TREATING DISEASE ASSOCIATED WITH SENESCENCE” (Steadman Philippon Research Institute, priority 2019, published 2024)", "key": {"[1]": {"test_system": "senescence-associated heterochromatin foci (SAHF) in ADSCs", "assay": "Immunofluorescence of senescence-associated heterochromatin foci (H3K9, γ-H2AX) in ADSCs", "format": "cell-based, human", "conditions": "50 μM Fisetin", "experimental": "Specifically, the cells were maintained in T-75 culture flasks using normal growth media (DMEM:F-12 with 10% FBS and 1% penicillin/streptomycin). At 70-90% confluency, the cells were passaged and reseeded in the flasks at a 1:4 dilution. At their respective testing passage number, cells were plated into chamber slides for SAHF staining at a density of 5,000 cells/cm^2. Cells were seeded in triplicate for each group and incubated to adhere overnight. The following day, cells were fixed with cold 4% paraformaldehyde and stained with the H2AX antibody using a 1:150 dilution and the H3K9 antibody using a 1:250 dilution. DAPI was also used to stain the nuclei. Five images per well and three wells per group were imaged using the Nikon Eclipse Ni-U microscope. Cells positive for the H2AX and H3K9 antibodies were quantified using the ImageJ software.\nEach cell type was given 3 replicate wells, and each well was imaged 6 times, for a total of 18 images per group. Using an Image J program, the number of cells positive for each marker was quantified.\nTo determine Fisetin's senolytic ability in vitro, based on the data from the preceding example, the 50 μM Fisetin concentration was used to treat YF and OF cells. Senescent cells were quantified by immunofluorescence using ? -H2AX and H3K9. Similarly, YM and OM cells were quantified using C12FDG for flow cytometry. […]"}, "[2]": {"test_system": "low passage (<p4) ADSCs", "assay": "CellTiter 96 AQueous Cell Proliferation Assay (cell toxicity)", "format": "cell-based, human", "experimental": "Banked ADSCs isolated from person three, person four, person two, and person one were purchased and cultured with normal growth media (DMEM/F:12, 10% FBS, and 1% penicillin/streptomycin).\nFisetin was added to growth media and treated on cells for 24 hours. Following treatment, the media was changed to normal growth media for 24 hours before being used for cell toxicity, immunofluorescence, or flow cytometry.\nThe CellTiter 96® AQueous Cell Proliferation Assay was used to determine the toxicity of 50 μM, 25 μM, and 1 μM Fisetin on low passage (<p4) cells. Cells were seeded at 40,000 cells/well in a 12-well plate. After adhering overnight, the cells were treated with 50 μM, 25 μM, and 1 μM of Fisetin for 24 hours. After treatment, the media was changed back to normal growth media for another 24 hours. The cells were then treated with the CellTiter 96 AQueous Cell Proliferation Assay following the manufacturer's protocol. Values are relative to untreated, control cells."}, "[3]": {"test_system": "Zmpste24−/− mice", "assay": "Micro-CT analysis of bone in progeroid Z24−/− mice given senolytic drugs", "format": "in vivo, mouse", "experimental": "(§1) Adult progeroid Z24−/− mice were administered senolytic drugs via oral gavage (150 μl volume) starting at 2.5 to 3.0 months of age. D/Q (5 mg/kg: 50 mg/kg in 10% PEG400/5.0% DMSO) was given as a single dose at 2.5 months or multi-dose at 2.5, 3.0, 3.5, 4.0, 4.5, and 5.0 months. Both single and multi-dose DQ mice were sacrificed at 5 months. FIS (100 mg/kg in 90% PEG400/10.0% ethanol) treated mice were given a total of 4 weekly doses of drug starting at 3.0 months of age, then sacrificed at 4.0 months of age. For 17-DMAG treatments (10 mg/kg, 1% DMSO-PBS), mice were treated 3 times per week starting at 2 months of age then sacrificed at 4 months of age.\nFor Fisetin treatments, mice were imaged using the explore Locus Utra Pre-Clinical CT Scanner (GE Healthcare, London, ON) through the pre-Clinical CT Core Facility with the following acquisition settings: 140 kVp, 22 mA with 16 s rotation/exposure. Non-cardiac gated CT images were acquired at all-time points. Simple back projections were obtained from the […] image reconstruction and exported as DICOM images. Image analysis was performed using the OsiriX software. Qualitative analysis of the bones was performed in 2D and 3D reconstructions using OsiriX. MicroView imaging software was also used for the quantitative analysis of the bone mineral density.\n(§2) Z24−/−mice were treated with Fisetin weekly for 4 weeks (100 mg/kg) starting at 3 months of age then sacrificed at 4 months of age. 4 months was chosen as a sacrifice time (versus 5 months) given the more advanced pathology that occurred at 5 months, a time when therapies might have negligible effects like seen in D+Q treated animals."}, "[4]": {"test_system": "mice OA models", "conditions": "cited from earlier work"}, "[5]": {"test_system": "C12FDG+ T-Cells", "assay": "Bright and dim C12FDG+ T-cells in five patients treated with Fisetin", "format": "in vivo, human", "experimental": "A certified phlebotomist used a 19-gauge butterfly needle to perform a standard venipuncture from the antecubital (AC) area, forearm or hand vein. Approximately 35 mL of blood was drawn into one 30 cc syringe (with ACD-A) and one 5 cc (without ACD-A) syringe. […] For total PBMCs and enriched T-Cells, SepMate™ tubes (Stem Cell Technologies) were used following manufactures protocol with Lymphoprep™ (Stem Cell Technologies) gradient centrifugation. Specifically, in separate tubes, CD3+ T-Cells were enriched using the RosetteSep™ commercial kit following manufactures instructions (Stem Cell Technologies #15021). A portion of cells (enriched T-cells and total PBMCs) were stained with 30 μM C12FDG in general culture media supplemented with 10% FBS and analyzed with flow cytometry (Guava EasyCyte, Luminex). To assess the percent, number, and concentration (cell/ml) of senescent CD3+ T-cells and PBMCs, settings were adjusted first using an unstained control (i.e., cells not treated with C12FDG). First, thresholds were set for FSC and SSC to catch cellular events. Next the green channel gain controls were set so that the background events fall between the 1st and second decade. […] Samples were ran in triplicate with water-only runs every 5 wells. Five patients with an age range from 56-77 years were treated with Fisetin at 100 mg/day for 30-45 days."}, "[6]": {"test_system": "SASP factors IL-6, IL-8, MCP-1", "assay": "SASP factor quantification in ADSC culture media (Milliplex)", "format": "cell-based, human", "conditions": "after Fisetin treatment, media 24 hours", "experimental": "For SASP detection, the media were collected after incubating with the cells for 24 hours, centrifuged at 2,000×g for ten minutes, transferred to new microcentrifuge tubes, and stored at −80° C. until testing. The Human Adipocyte Milliplex kit using the EMD Millipore Milliplex instrument was used to quantify the SASPs.\nCells were seeded in triplicate for each group using previously described culture methods and seeding densities. After adhering overnight, the media was changed. For the untreated group normal ADSC growth media was used (DMEM:F-12 with 10% FBS and 1% penicillin/streptomycin), and for the treated group 50 μM Fisetin was added. Cells were treated for 24-hours, after which the media was changed back to normal growth media for all groups. After culturing in normal growth media for another 24 hours, the media was collected for SASP quantification or the cells were processed for C12FDG or SAHF staining, as described in the preceding example.\nWithin the R1 region of FIGS. 4B-4D, cells positive for C12FDG are noted by their respective peaks. […] In all groups, a decrease was indicated. […] 3 replicates were used for each treatment. (FIG. 6)."}, "[7]": {"test_system": "Zmpste24−/− mice", "assay": "Transcript levels of senescence marker and SASP factors in tissues of Z24−/− mice", "format": "in vivo, mouse", "conditions": "100 mg/kg weekly", "experimental": "as §1, §2"}, "[8]": {"test_system": "senescent ADSCs (β-galactosidase, C12FDG)", "assay": "C12FDG staining of senescence-associated β-galactosidase with flow cytometry in culture-expanded ADSCs", "format": "cell-based, human", "experimental": "Cells were treated with 100 nM of bafilomycin A1 for 1 hour at 37° C. and 5% CO2. Next, 33 μM C12FDG was added and incubated for 2 hours. Thus, cells were stained with the fluorescent senescence-associated marker C12FDG, collected, and tested for senescence using flow cytometry after 50 μM Fisetin treatment. 3 replicates were used per treatment. The InCyte software was used, and fluorescent gating was determined using unstained control cells.\nTo determine Fisetin's senolytic ability in vitro, based on the data from the preceding example, the 50 μM Fisetin concentration was used to treat YF and OF cells. Senescent cells were quantified by immunofluorescence using ? -H2AX and H3K9. Similarly, YM and OM cells were quantified using C12FDG for flow cytometry. C12FDG reacts with beta-galactosidase, a biomarker for senescence, to produce a fluorogenic substrate to be detected and quantified by flow cytometry.\nCells were seeded in triplicate for each group using previously described culture methods and seeding densities. After adhering overnight, the media was changed. […] After culturing in normal growth media for another 24 hours, the media was collected for SASP quantification or the cells were processed for C12FDG or SAHF staining, as described in the preceding example."}, "[9]": {"test_system": "senescent CD3+ T-cells", "assay": "Senescent peripheral blood CD3+ T-cells before and after oral Fisetin, C12FDG flow cytometry (person)", "format": "in vivo, human", "conditions": "CD3+ cells after Fisetin treatment, 100 mg per day for 45 days", "experimental": "Whole blood was collected from a subject into 50 ml Syringe containing ACD-A and set on a rocker. SepMate tubes (Stem Cell Technologies) were prepared with 15 ml Lymphoprep in a sterile environment. 10 ml whole blood were aliquoted into 50 ml conical tubes. 500 μl (50 μl/ml) RosetteSep (Stem Cell Technologies) was added to 10 mL sample of blood. For other blood samples, total PBMCs were collected as described below without T-cell enrichment for comparison. The mixture was incubated 10 min at room temperature (RT). An equal volume dilution medium (DM-sterile PBS and 2% FBS) was added to the sample and mixed gently. The diluted sample was slowly added to the SepMate tube containing Lymphoprep density gradient medium. The mixture was centrifuged at 1200×g for 10 minutes, brake on. The enriched cells were collected by pouring supernatant into a new tube. […]\nSenescent cells were treated with Fisetin and then further characterized using flow cytometry (as described in Example 4, above). Peripheral Blood CD3+ T-cells from a person before & after Fisetin treatment (100 mg per day for 45 days) were evaluated for senescence and for senescent cell populations. Before treatment, the subject measured about 29% senescent cells, and after treatment, the subject measured about 4% senescent cells (data not shown)."}, "[10]": {"conditions": "Losartan administration; cited from earlier work"}, "[11]": {"conditions": "treated versus untreated Z24−/− mice"}}, "note": "“Also recorded” adds a separate entry of the source.", "data": [{"smiles": "O=c1c(O)c(-c2ccc(O)c(O)c2)oc2cc(O)ccc12", "note": "[Fisetin, 2-(3,4-dihydroxyphenyl)-3,7-dihydroxychromen-4-one]", "values": [{"measurement": "number of cells positive for H3K9", "setting": "[1]; OF and YF cells, passages 4 and 18", "result": "significantly reduced in all groups"}, {"measurement": "γ-H2AX positive cells", "setting": "[1]; low passage OF, low passage YF, high passage YF cells", "result": "reduced"}, {"measurement": "toxicity to the health of low passage ADSCs", "setting": "[2]; 50 μM", "result": "not toxic"}, {"measurement": "percentage of viable cells among treatments", "setting": "[2]; 50 μM, 25 μM, 1 μM, YF, OF, YM, OM, relative to untreated control cells", "result": "no significant difference"}, {"measurement": "toxicity to ADSCs", "setting": "[2]; 1-50 μM, 24 hours treatment", "result": "non-toxic"}, {"measurement": "ADSC viability and proliferation", "setting": "[2]; Fisetin exposure", "result": "not hindered"}, {"measurement": "bone density loss", "setting": "[3]; 100 mg/kg weekly for 4 weeks from 3 months of age, micro-CT", "result": "significantly attenuate"}, {"measurement": "protective effects in bone", "setting": "[3]; Z24−/− mice, oral gavage", "result": "effective"}, {"measurement": "Hounsfield unit (HU) intensity", "setting": "[3]; [11]", "result": "Significant higher scores"}, {"measurement": "bone mineral density (BMD)", "setting": "[3]; [11]", "result": "Significant higher scores"}, {"measurement": "specific bone surface (BS/BV)", "setting": "[3]; [11]", "result": "Significant higher scores"}, {"measurement": "cartilage destruction", "setting": "[4]", "result": "decreased"}, {"measurement": "subchondral bone plate thickness", "setting": "[4]", "result": "decreased"}, {"measurement": "synovitis", "setting": "[4]", "result": "relieved"}, {"measurement": "reduction in the percent of C12FDG+ cells (dim, early stage)", "setting": "[5]; 100 mg/day for 30-45 days", "result": "1-2 fold"}, {"measurement": "bright cells, mean", "setting": "[5]; P19, treated/post-treated", "result": 1.15, "unit": "%"}, {"measurement": "dim cells, mean", "setting": "[5]; P19, treated/post-treated", "result": 26.70, "unit": "%"}, {"measurement": "bright cells, mean", "setting": "[5]; P50, treated/post-treated", "result": 0.60, "unit": "%"}, {"measurement": "dim cells, mean", "setting": "[5]; P50, treated/post-treated", "result": 27.55, "unit": "%"}, {"measurement": "reduction in bright C12FDG+ T-cells", "setting": "[5]; patients with high baseline bright cells, 100 mg/day for 30-45 days", "result": "10-20 fold"}, {"measurement": "IL-6 concentration", "setting": "[6]", "result": "decrease"}, {"measurement": "IL-8 concentration", "setting": "[6]", "result": "decrease"}, {"measurement": "MCP-1 concentration", "setting": "[6]", "result": "decrease"}, {"measurement": "transcript levels of IL-6", "setting": "[7]", "result": "reduced"}, {"measurement": "transcript levels of TGF-β", "setting": "[7]", "result": "reduced"}, {"measurement": "transcript levels of p16INK4a", "setting": "[7]", "result": "reduced"}, {"measurement": "% cells positive for C12FDG (senescence)", "setting": "[8]; 50 μM Fisetin, 24 hours, passages 6, 8, 10", "result": "significantly reduced; also recorded: reduced at every passage"}, {"measurement": "count of the peak representing senescent cells (histogram)", "setting": "[8]; cells treated with 50 μM Fisetin", "result": "about 20"}, {"measurement": "Senescent cell concentration", "setting": "[9]", "result": "7397 +/− 3191 cells/mL"}, {"measurement": "Total senescent cells", "setting": "[9]", "result": "191 +/− 73"}]}, {"smiles": "CCCCc1nc(Cl)c(CO)n1Cc1ccc(-c2ccccc2-c2nn[nH]n2)cc1", "note": "[Losartan]", "values": [{"measurement": "microfracture for cartilage repair", "setting": "[10]", "result": "enhance"}]}]}
